Measurements: patent US20240025849A1 (MAX DELBRÜCK-CENTRUM FÜR MOLEKULARE MEDIZIN IN DER …, priority 2020, published 2024)
“And” between values parts separate entries of the source, which are not always exact repeats. Equal values may be shown once. “Also recorded” adds a separate entry of the source.

How the values were obtained:
Format in all cases: cell-based, mouse
[1] = test system: bone marrow derived macrophages; experiment: NO release in bone marrow derived macrophages, Griess assay; conditions: for NO release: 0.25 μM C1; for NO release, % of positive control: 2.5 μM C1
Method: Primary cultured macrophages. Bone marrow macrophages were isolated from C57BL/6 adult mice (P49-56) as previously described (Marim et al., 2010). In summary, mice were killed by cervical dislocation and the femurs were removed by cutting through the tibia near the pelvic bone and below the knee. Any muscle connected to the bone was carefully removed. Ice cold sterile PBS was slowly flushed through the bone and the contents were collected in a sterile 15 mL polypropylene tube on ice. After centrifugation for 10 min at 200 g at 4° C., red blood cells were lysed by adding 3-10 mL ammonium chloride solution. After a 3-5 min recovery period, the suspension was centrifuged for 10 min at 200 g at 4° C. and the supernatant was removed. Cells were plated in a 10 cm dish with plain medium containing 10 ng/mL M-CSF and cultured for 7 days to allow differentiation. 50 000 cells were plated with 200 μL medium per well in a 96 well plate.
(§1) Griess assay. Cells were seeded according to the protocols described above, after compounds and stimuli were added, 100 μl of supernatant was transferred into a new 96 well plate and 100 μl freshly mixed Griess reagent were added. Griess reagent was composed of reagent A (100 mg Naphthylethylene in 50 ml aqua dest.) and reagent B (1 g Sulfanilamide, […] H3PO4 (85%) in 44 mL aqua dest.) mixed 1:1. The solution was carefully mixed and the absorbance was determined in a microplate reader at a wavelength of 550 nm.
Microglia and macrophages share many of their immune properties, therefore the inventors evaluated the impact of C1 on the release of NO and the pro-inflammatory cytokines IL1β, IL6, and TNFα on bone marrow derived macrophages (Amici et al., 2017; Li and Barres, 2017). Bone marrow derived macrophages were isolated from adult mice and pre-treated for 1 hour with C1 (0.025 μM, 0.25 μM, or 2.5 μM), its corresponding concentration of DMSO (1.25×10-5, 12.5×10-5, or 125×10-5 v/v), or plain medium before a stimulus was added. The NO release was measured after stimulation with either 1 μg/ml LPS for 48 hours (FIG. 2-1A), 100 μg/mL PolyIC for 24 hours (FIG. 2-1B) or 100 ng/ml IFNγ for 48 hours (FIG. 2-1C). […] DMSO had no effect on the NO release in bone marrow derived macrophages stimulated with LPS or PolyIC (FIGS. 2-1A and B). However, it reduced the IFNγ induced NO release in these cells independently of the applied dose (1.25×10-5 v/v: 85%, p<0.0043; 12.5×10-5 v/v: 83%, p<0.0016; 125×10-5 v/v: 85%, p<0.0046, FIG. 2-1C), similar to the effect observed in microglia when stimulated with IFNγ (FIG. 2A).

[2] = test system: primary cultured neonatal microglia; experiment: IFNγ induced NO release, Griess assay; conditions: for level of NO, % of its initial concentration (stimulated control): 100 ng/ml IFNγ 48 hours
Method: (§2) Primary cultured neonatal microglia. For preparation of cultured neonatal microglia, P0-P3 mice were used. 10 brains were extracted, meninges and cerebellum were removed and put on ice with Hank's balanced salt solution (HBSS). The dissected brains were washed 3 times before adding 400 μL trypsin (0.1 mg/L) and DNAse (5 μg/L) in phosphate buffered saline (PBS). After 2 min of incubation with this solution, the reaction was blocked by adding plain medium. After removal of the medium, 1 mg DNAse was added and the cells were mechanically dissociated, with a Pasteur pipette followed by a glass pipette. The cells were centrifuged for 10 min at 129 g at 4° C. The supernatant was discarded. The pellet was resuspended in plain medium and plated (2.5 brains/flask) in Poly-L-Lysine coated flasks. The cells were washed after 2 days with PBS and incubated for another 7 days in plain medium. Afterwards the medium was replaced by plain medium with 33% L929 conditioned medium. After 2 days, cells were harvested by shaking them for 30 min at 150 rpm. The supernatant was centrifuged for 10 min at 129 g at 4° C. The cells were plated into a 96 well plate (100 000 cells/well, 200 μL medium per well). This procedure could be repeated 2 times with a 2 day interval.
as §1
In order to test whether C1 decreases NO release induced by other stimulation agents besides LPS which is mimicking a bacterial infection, the inventors used IFNγ to mimic a Th1 cell response (Yau et al., 2016) and PolyIC to mimic an anti-viral response (Jiang and Pisetsky, 2006). Given that our aim is to determine the compound's effect on already stimulated microglia (LPS, IFNγ, and PolyIC), each individual experiment is normalized to its stimulated control.

Microglial cells = experiment: Microchemotaxis assay (Boyden chamber): chemotaxis and motility
Method: Microchemotaxis assay. The effect of the compound on directed migration and general motility was tested using a 48-well microchemotaxis Boyden chamber (Neuroprobe, Gaithersburg, USA). Upper and lower wells were separated by polycarbonate filter (8 μm pore size; Poretics). Microglial cells (2-4×10^4 cells) in 50 μl plain medium were added to the upper compartment. In addition, 2.5 μM of compound in DMSO, 125×10-5 v/v DMSO respectively, and/or 100 μM ATP were added to the upper and/or lower chamber, as shown in FIG. 3A. Plain medium was used as a control. The chamber was incubated at 37° C. and 5% CO2 for 6 h. Cells remaining on the upper surface of the membrane were removed by wiping, and cells in the lower compartment were fixed in methanol for 10 min and subjected to Diff-Quik stain (Medion Grifols Diagnostics AG, Dudingen, Switzerland). The rate of microglial migration was calculated by counting cells in four random fields of each well using a 20×bright-field objective. All data were normalised to ATP induced chemotaxis.

[3] = test system: primary cultured neonatal microglia; experiment: Cytokine release (IL1β, IL6, TNFα) ELISA in microglia
Method: as §2
Enzyme-linked immunosorbent assay (ELISA). Cells were seeded according to the protocols described above, after compounds and stimuli were added, the supernatant was collected, centrifuged (500 g, 5 minutes) and stored at −20° C. until analysed. The following kits from Bio-Techne (Minneapolis, USA) were used to detect IL1β, IL6 and TNFα: ELISA Mouse IL-1β/IL-1F2 Duo Set, ELISA Mouse IL-6, ELISA Mouse TNFα. ELISA assays were performed according to the manufacturers protocol.

[4] = 1 h C1, then 1 μg/ml LPS 48 hours
[5] = unstimulated microglia, 48 hours

With COc1ccc(NC(=O)C(NC(=O)C2CCCN2C(=O)OCc2ccccc2)c2ccc(OC)cc2)cc1 (stereo not drawn) [C1] the NO release ([1]; 1 μg/mL LPS 48 hours) was “reduced the NO release significantly”, the NO release ([1]; 100 μg/mL PolyIC 24 hours) was “significant decrease” and the “NO release, % of positive control” value ([1]; 100 ng/mL IFNγ 48 hours) was 18%. The “NO release, % of positive control” value ([1]; 100 μg/mL PolyIC 24 hours) was 15.01±10.32% and 15%, the “NO release, dose dependence” value ([1]; 0.025, 0.25, 2.5 μM C1, LPS, PolyIC or IFNγ) was “reduced the NO release in a dose dependent manner” and the “level of NO, % of its initial concentration (stimulated control)” value (from here on “level of NO, % … (stimulated control)”) ([2]; 25 nM C1) was 84%. The “level of NO, % … (stimulated control)” value ([2]; 250 nM C1) was 41%, the “level of NO, % … (stimulated control)” value ([2]; 2.5 μM C1) was 22% and the “NO release upon stimulation with IFNγ” value ([2]; pre-treatment with C1) was “dose dependent decrease”. For the same molecule, the ATP induced motility (Microglial cells; 2.5 μM C1, 100 μM ATP) was “neither changed; also recorded: not altered”, the microglial motility (Microglial cells; 2.5 μM C1 on both sides of the chamber) was “reduced in the presence of C1 significantly compared to plain medium (p=0.0018) but not to DMSO; also recorded: did not significantly affect motility compared to the DMSO control, however it did, when compared to the plain medium control” and the “chemotaxis (cells migrating towards C1)” value (Microglial cells; gradient of 2.5 μM C1, 6 h) was “increased chemotaxis significantly; also recorded: significantly higher”. For the same molecule, the “LPS induced IL1β release” value ([3]; 0.025, 0.25, 2.5 μM C1, 1 μg/ml LPS 48 hours) was “exceeded the LPS-induced release; also recorded: exceeds the stimulated control significantly”, the “LPS induced IL6 release” value [3, 4] was “no effect; also recorded: did not show a reduction” and the “LPS induced TNFα release” value [3, 4] was “no effect; also recorded: did not show a reduction”. For the same molecule, the “IL1β release, C1 alone” value [3, 5] was “did not show any significant changes; also recorded: does not alter”, the “IL6 release, C1 alone” value [3, 5] was “did not show any significant changes; also recorded: does not alter” and the “TNFα release, C1 alone” value [3, 5] was “did not show any significant changes; also recorded: does not alter”.
